System: GluN1A/GluN2A NMDARs
Assay: Whole-cell recording of glutamate-evoked NMDAR currents in HEK 293 cells expressing GluN1A/GluN2A
Assay type: cell-based
Procedure: HEK 293 cells (ATCC Cat# CRL-1573) were obtained at passage 37 and used for a maximum of six passages. Cell cultures were maintained in Dulbecco’s modified Eagle’s medium (DMEM) with 10% fetal bovine serum (Life Technologies, Inc.) and penicillin/streptomycin (P/S). For electrophysiology, cells were plated at low density (∼50,000 cells/ml) on 15-mm round glass coverslips in 12-well plates. Cells were transfected using the Ca^2+ phosphate method with 1 μg of each construct per coverslip. For control cells, 0.3 μg of pEGFP (GenBank U55762.1) was included as a transfection marker. Epifluorescence was used to confirm the expression of the corresponding APP family members and APP FAD mutants. For biochemistry, HEK 293 cells were plated at ∼50% confluence on 10 cm dishes. HEK 293 cells were transfected by the Ca^2+ phosphate method. For these experiments, 4 μg of each construct was used, with 1 μg of mCherry (GenBank AY678264.1) used as a transfection marker. Experiments were performed 24 h after transfection.
Twenty-four hours after transfection, HEK 293 cells were visually selected for recording by GFP epifluorescence. […] whole-cell recordings of NMDA receptor currents were obtained with a Multiclamp 700A amplifier (Molecular Devices) and digitized through a Digidata 1332A using Clampex 10.3 software. Patch pipettes (2–5 MΩ for HEK 293 cells; 3–6 MΩ for neurons) contained (in mM) the following: 140 Cs methanesulfonate, 10 Hepes, five ATP (Na salt), 5 MgCl2, and 0.2 EGTA + 0.01 CaCl2 or 10 BAPTA + 0.2 CaCl2 (pH 7.4). QX-314 (2 mM) was included in the pipette solution for neuronal recordings to ensure the block of voltage-gated Na^+ currents. The extracellular solution contained (in mM) 150 NaCl, 5 KCl, 1.8 CaCl2, 10 Hepes, 11.1 glucose, 0.1 glycine (pH 7.4) and flowed at a rate of 1 to 2 ml/min. For neuronal recordings, this solution was supplemented with tetrodotoxin (0.3 μM), NBQX (10 μM), and picrotoxin (100 μM), to block voltage-gated Na^+ channels, AMPA receptors, and GABA receptors, respectively. HEK cells were lifted from the coverslip after establishment of the whole-cell configuration, to speed solution exchange, and placed ∼20 μm from the mouth of a series of flow pipes, which were controlled by solenoid valves and moved into position by a piezoelectric bimorph. With this configuration, solution exchanges were accomplished within 10 to 12 ms as assessed by the rise time (20–80%) of whole-cell agonist-evoked current responses. Flow pipes were lowered to within ∼50 μm of the surface of the coverslip and placed ∼100 to 150 μm from the soma of the cell. Currents were digitized at 2 kHz and filtered at 1 kHz. Series resistance (90–95% HEK cells; 60–70% neurons) and whole-cell capacitance compensation were employed, and input resistance was routinely monitored by 5 mV hyperpolarizing jumps between agonist applications. Cells showing sudden shifts in these parameters were discarded. Experiments were performed at a holding potential of −60 mV at 20 °C. Currents were elicited by a 3 s (5 s for neurons) application of glutamate (1 mM) in the extracellular recording solution. Desensitization was quantified as the ratio of average current remaining in the last 50 ms of the agonist application to the peak current using Clampfit 10.3 software. […] Current density was calculated by dividing the peak current by the compensated whole-cell capacitance.

Compound: O=C(O)CN(CC(=O)O)c1ccccc1OCCOc1ccccc1N(CC(=O)O)CC(=O)O [BAPTA]
- effect on NMDAR current amplitude (in words) (10 mM BAPTA in pipette, APP-expressing cells, within 1–3 min): increase in the amplitude of GluN1A/GluN2A currents
- effect on NMDAR desensitization (in words) (10 mM BAPTA in pipette, GFP controls and APP-expressing cells): did not appear to modify the degree of NMDAR desensitization
- effect on NMDAR current amplitude (in words) (10 mM BAPTA in pipette, GFP-expressing cells): declined in amplitude by a similar extent to that seen with low EGTA concentrations

Compound: cyclosporin A [CsA]
- effect on NMDAR desensitization (in words) (CsA 1 μM, GFP-expressing cells, relative to untreated cells): desensitization appeared modestly enhanced
- ss/p ratio in APP-expressing cells (in words) (CsA 1 μM, low intracellular EGTA): no longer different (and modestly elevated) compared to GFP-expressing cells

From article PMC11910330, “Familial Alzheimer’s disease mutations in amyloid precursor protein impair calcineurin signaling to NMDA receptors” (The Journal of Biological Chemistry, 2024)
